Read-outs that look alike come from different tables or passages of the source.
How the values were obtained:
[1] = biological target: T1, Full length wild-type cereblon CRBN (Homo sapiens, UniProt Q96SW2); experiment: Fluorescence polarization (FP) assay, cereblon binding
T1 construct: Full length wild-type cereblon CRBN (80.0 nM, 10 μL) was incubated in assay buffer
In short: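 Full-length wild-type human CRBN (80.0 nM) was preincubated with compound for 30 min at room temperature in 20 mM HEPES pH 8.0, 150 NaCl, 0.5 mM TCEP and 0.05% Tween 20. A Cy5-type thalidomide-linked fluorescent probe was then added. The FP signal was normalized to the DMSO control to derive IC50.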

[2] = biological target: T2, GSPT1 (Homo sapiens, UniProt P15170+Q96SW2); experiment: Immunofluorescence assay for GSPT1 degradation in CAL-51 cells (Example 4); assay type: cell-based; parameters: host or cells: CAL-51
T2 sequence (P15170 whole entry): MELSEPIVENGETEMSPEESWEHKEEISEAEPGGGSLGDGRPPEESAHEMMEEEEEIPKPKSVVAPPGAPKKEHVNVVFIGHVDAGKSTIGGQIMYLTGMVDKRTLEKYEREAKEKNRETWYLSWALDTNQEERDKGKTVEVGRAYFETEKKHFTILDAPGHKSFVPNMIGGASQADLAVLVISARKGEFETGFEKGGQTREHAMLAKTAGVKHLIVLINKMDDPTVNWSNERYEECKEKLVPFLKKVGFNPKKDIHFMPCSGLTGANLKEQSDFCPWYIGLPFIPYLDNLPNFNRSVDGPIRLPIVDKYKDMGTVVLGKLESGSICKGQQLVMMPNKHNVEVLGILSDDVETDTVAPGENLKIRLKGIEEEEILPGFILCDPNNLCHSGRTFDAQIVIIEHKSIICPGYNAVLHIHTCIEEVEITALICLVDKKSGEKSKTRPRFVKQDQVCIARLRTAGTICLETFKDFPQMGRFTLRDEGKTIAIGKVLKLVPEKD
T2 sequence (Q96SW2 whole entry): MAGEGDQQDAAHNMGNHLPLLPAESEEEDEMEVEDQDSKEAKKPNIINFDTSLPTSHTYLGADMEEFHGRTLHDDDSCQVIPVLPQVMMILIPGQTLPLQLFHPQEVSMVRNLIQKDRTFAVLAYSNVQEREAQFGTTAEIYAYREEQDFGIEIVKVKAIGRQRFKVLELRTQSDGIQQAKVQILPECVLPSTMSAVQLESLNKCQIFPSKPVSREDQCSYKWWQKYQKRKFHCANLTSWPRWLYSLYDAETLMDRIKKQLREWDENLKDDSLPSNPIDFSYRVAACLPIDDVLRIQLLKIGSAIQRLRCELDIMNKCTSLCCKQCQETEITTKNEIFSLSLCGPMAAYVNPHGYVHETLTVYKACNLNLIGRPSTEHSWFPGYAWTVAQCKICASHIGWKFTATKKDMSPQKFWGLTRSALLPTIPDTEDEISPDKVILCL
T2 sequence (Q16531 2-1140 partner limits assumed): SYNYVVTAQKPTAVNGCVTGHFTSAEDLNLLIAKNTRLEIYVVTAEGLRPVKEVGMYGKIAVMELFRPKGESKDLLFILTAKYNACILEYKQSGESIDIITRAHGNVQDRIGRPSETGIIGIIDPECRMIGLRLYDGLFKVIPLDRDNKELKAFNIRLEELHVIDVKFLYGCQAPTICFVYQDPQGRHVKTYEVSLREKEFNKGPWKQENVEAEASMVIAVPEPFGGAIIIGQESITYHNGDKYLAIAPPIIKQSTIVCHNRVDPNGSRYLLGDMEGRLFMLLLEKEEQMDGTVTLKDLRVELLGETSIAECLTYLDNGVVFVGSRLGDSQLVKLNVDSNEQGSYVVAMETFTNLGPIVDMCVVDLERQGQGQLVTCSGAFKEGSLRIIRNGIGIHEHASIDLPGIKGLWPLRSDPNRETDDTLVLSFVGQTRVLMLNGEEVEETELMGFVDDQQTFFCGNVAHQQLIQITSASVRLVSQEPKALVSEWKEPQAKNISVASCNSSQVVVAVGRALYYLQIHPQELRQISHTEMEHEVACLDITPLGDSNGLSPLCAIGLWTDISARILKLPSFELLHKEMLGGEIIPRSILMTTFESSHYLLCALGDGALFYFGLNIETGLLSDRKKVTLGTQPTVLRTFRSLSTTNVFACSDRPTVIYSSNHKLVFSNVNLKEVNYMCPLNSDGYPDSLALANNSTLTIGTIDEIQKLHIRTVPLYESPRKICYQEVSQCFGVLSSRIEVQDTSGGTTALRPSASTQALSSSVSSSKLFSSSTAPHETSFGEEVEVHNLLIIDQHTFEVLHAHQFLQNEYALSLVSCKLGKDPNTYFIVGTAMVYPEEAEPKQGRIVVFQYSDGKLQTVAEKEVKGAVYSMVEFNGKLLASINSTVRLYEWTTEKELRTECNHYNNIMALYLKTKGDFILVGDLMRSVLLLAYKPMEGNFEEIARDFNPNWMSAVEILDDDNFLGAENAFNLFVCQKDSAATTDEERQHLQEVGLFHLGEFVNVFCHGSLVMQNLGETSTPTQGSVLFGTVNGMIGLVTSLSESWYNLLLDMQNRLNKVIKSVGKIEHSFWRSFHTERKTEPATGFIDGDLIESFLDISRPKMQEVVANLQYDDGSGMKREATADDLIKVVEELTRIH
Description: The representative compounds were tested in an immunofluorescence assay for their activity to bind to degrade GSPT1. […] Compounds were stored at 10 mM DMSO stocks. […] Cells were subsequently rinsed with PBS and fixed in 10% Formalin solution (50 μl, Sigma HT5011)) for 20 mins at room temperature. […] Following three further PBS washes, […] blocking buffer (1% BSA, Sigma A4503, in PBS) was added for 45 min for signal-to-noise reduction.
Primary antibody (human GSPT1, Sigma HPA052488) was diluted in blocking buffer (dil.1/300, 35 μl/well) and incubated with the cells overnight at 4° C. […] After three final PBS washes, samples were conserved in 100 μl PBS in the dark, until measurement. Image acquisition was performed on the Operetta High-Content Imager (Perkin-Elmer). […] For the determination of GSPT1 DC50 values, a custom algorithm implemented in the PerkinElmer image analysis software Harmony-Acapella® was developed. After user-defined setting of adjustment parameters, the analysis was run identically without human intervention for all image fields. DAPI staining of the nuclei was used to determine the location of cells using standard nuclei detection modules. Segmentation artifacts were removed by threshold-based filters for area, roundness and intensity. The outline of the cells was determined analogously from the sum of the normalized, smoothed DAPI and Actin channel, starting from each nucleus.
GSPT1 degradation (DC50) was calculated after normalization to controls and data import in CDD vault Database, using non-linear regression.

[3] = biological target: T2, GSPT1; experiment: Western blot selectivity assay in MM1S cells: GSPT1; assay type: cell-based; parameters: endogenous in cells; host or cells: MM1S (ATCC CRL-2974); settings: MM1S cells, 0.3, 3 and 30 μM, 6 hours
Description: (§1) MM1S cells were purchased from ATCC (cat. Number CRL-2974), sub-cultured in 90% RPMI 1640 with 10% FBS, supplemented with 1×P/S and incubated at 37° C., 5% CO2. Compounds were stored as 10 mM DMSO stock. For the assay, MM1S cells (3 million cells/well) were plated in 6-well plates and incubated over night. Cells were treated with respective compounds using a serial dilution: 0.3 μM, 3 μM and 30 μM as well as a vehicle only (DMSO) control for 6 hours. Media with suspension cells was subsequently transferred to 15 mL conical tubes, wells rinsed twice with ice-cold PBS and merged with cell suspension in respective 15 mL conical tube. Cells were spinned down, supernatant aspirated, pellets resuspended in ice-cold PBS and transferred to microtubes. Cells were spinned down, supernatant aspirated and pellets resuspended in 120 μL RIPA lysis buffer supplemented with protease and phosphatase inhibitors. Cell lysates were incubated on ice for 20 minutes followed by centrifugation at >20,000×g for 5 min. Supernatants were transferred to fresh microtubes and stored at −80° C. Total protein concentration was determined using a BCA assay with a BSA standard curve and concentration of all samples was adjusted to 1 mg/mL. 25 μL 4×LDS sample buffer supplemented with 100 mM DTT was added to 75 μL sample. Samples were centrifuged (8,000×g, 1 min) and incubated at 95° C. for 5 min followed by another centrifugation step (8,000×g, 1 min). 20 μL of each sample was loaded on a 4-12% gel alongside a protein molecular weight marker. Gels were run in the presence of MOPS buffer at 80 Volts for 30 min, followed by 120 Volts for 1.5 h and proteins subsequently transferred onto nitrocellulose membranes at 20 Volts for 7 min using an iBlot2 Gel Transfer Device. Membranes were then cut horizontally into two pieces, covering 80-50 kDa and 50-25 kDa. Blocking the membranes was performed by gently shaking in 5% (w/v) skim milk in TSB-T for 1 hr at room temperature. All primary antibodies were used at a 1/1000 in 5% (w/v) BSA dissolved in TBST and incubated with membranes over night at 4° C. Anti-IKZF1 (Ikaros; D6N9Y; 14859S), anti-IKZF3 (Aiolos; D1C1E; 15103S) antibodies were purchased from Cell Signalling Technology, anti-ZFP91 antibody from Bethyl laboratories, anti-GSPT1 from Sigma Aldrich (HPA052488) and anti CK1alpha from AbCam (ab206652). After three washes with 1×TBST for 5 min, HRP-coupled secondary antibodies diluted in 5% (w/v) BSA/TBST (Goat Anti-Rb IgG, dil. 1/10,000; Goat Anti-Mouse IgG, dil. 1/5000) were added for 1 hr at room temperature. After three washes with 1×TBST (5 minutes each), membranes were incubated with ECL reagent for 1 min at room temperature. Chemiluminescence signals were then detected using a LAS-4000 system with default settings and signals quantified using Image Studio Lite software (version 5.2). Membrane parts previously incubated with antibody against CK1alpha were stripped off antibodies by incubating with stripping buffer for 30 minutes followed by three washed with TBST (5 min each), blocking with 5% (w/v) skim milk for 1 hr, and incubation with primary antibody against GAPDH overnight at 4° C. Subsequent washes, incubation with secondary antibody and signal acquisition were performed as described above.

[4] = biological target: T3, IKZF1 (Ikaros) (Homo sapiens, UniProt Q13422); experiment: Western blot selectivity assay in MM1S cells: IKZF1; assay type: cell-based; parameters: key: A represents a no degradation observed at 30 μM; B represents trace degradation at 30 μM (below 20%); C represents weak degradation at 30 μM (below 50%); D represents degradation at 30 μM (>90%); E represents degradation at 3 μM (>90%); F represents degradation at 0.3 μM (>90%); settings: MM1S cells, 0.3, 3 and 30 μM, 6 hours
T3 construct: endogenous in cells; host or cells: MM1S (ATCC CRL-2974)
T3 sequence (Q96SW2 whole entry partner): as the sequence (Q96SW2 whole entry) above
T3 sequence (Q16531 2-1140 partner limits assumed): as the sequence (Q16531 2-1140 partner limits assumed) above
T3 sequence (Q13422 whole entry): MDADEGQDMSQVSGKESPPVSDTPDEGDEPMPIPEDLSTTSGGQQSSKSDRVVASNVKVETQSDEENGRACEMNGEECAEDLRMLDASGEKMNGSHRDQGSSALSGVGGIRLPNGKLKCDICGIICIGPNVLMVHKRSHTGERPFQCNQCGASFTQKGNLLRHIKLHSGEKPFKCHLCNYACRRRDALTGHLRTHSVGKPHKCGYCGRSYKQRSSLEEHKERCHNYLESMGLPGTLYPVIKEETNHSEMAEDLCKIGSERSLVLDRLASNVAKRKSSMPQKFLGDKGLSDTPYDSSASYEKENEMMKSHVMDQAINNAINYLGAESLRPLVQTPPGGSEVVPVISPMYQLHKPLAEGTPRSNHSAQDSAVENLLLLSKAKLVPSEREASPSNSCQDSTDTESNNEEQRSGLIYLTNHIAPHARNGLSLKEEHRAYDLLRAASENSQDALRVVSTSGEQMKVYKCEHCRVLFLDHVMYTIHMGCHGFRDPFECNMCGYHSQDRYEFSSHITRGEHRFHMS
Description: as §1

[5] = biological target: T4, CK1alpha (Homo sapiens, UniProt P48729); experiment: Western blot selectivity assay in MM1S cells: CK1alpha; assay type: cell-based; parameters: key: A represents a no degradation observed at 30 μM; B represents trace degradation at 30 μM (below 20%); C represents weak degradation at 30 μM (below 50%); D represents degradation at 30 μM (>90%); E represents degradation at 3 μM (>90%); F represents degradation at 0.3 μM (>90%); settings: MM1S cells, 0.3, 3 and 30 μM, 6 hours
T4 construct: endogenous in cells; host or cells: MM1S (ATCC CRL-2974)
T4 sequence (Q96SW2 whole entry partner): as the sequence (Q96SW2 whole entry) above
T4 sequence (Q16531 2-1140 partner limits assumed): as the sequence (Q16531 2-1140 partner limits assumed) above
T4 sequence (P48729 whole entry): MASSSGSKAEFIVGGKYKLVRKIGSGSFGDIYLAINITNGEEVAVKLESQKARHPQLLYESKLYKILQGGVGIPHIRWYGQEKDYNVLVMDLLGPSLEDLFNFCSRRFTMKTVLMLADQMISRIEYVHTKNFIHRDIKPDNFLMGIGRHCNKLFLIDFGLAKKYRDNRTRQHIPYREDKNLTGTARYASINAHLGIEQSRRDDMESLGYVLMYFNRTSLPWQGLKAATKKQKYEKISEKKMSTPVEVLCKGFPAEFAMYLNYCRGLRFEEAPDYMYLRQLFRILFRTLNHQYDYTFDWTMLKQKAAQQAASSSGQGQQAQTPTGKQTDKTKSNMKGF
Description: (§2) MM1S cells were purchased from ATCC (cat. Number CRL-2974), sub-cultured in 90% RPMI 1640 with 10% FBS, supplemented with 1×P/S and incubated at 37° C., 5% CO2. Compounds were stored as 10 mM DMSO stock. For the assay, MM1S cells (3 million cells/well) were plated in 6-well plates and incubated over night. Cells were treated with respective compounds using a serial dilution: 0.3 μM, 3 μM and 30 μM as well as a vehicle only (DMSO) control for 6 hours. Media with suspension cells was subsequently transferred to 15 mL conical tubes, wells rinsed twice with ice-cold PBS and merged with cell suspension in respective 15 mL conical tube. Cells were spinned down, supernatant aspirated, pellets resuspended in ice-cold PBS and transferred to microtubes. Cells were spinned down, supernatant aspirated and pellets resuspended in 120 μL RIPA lysis buffer supplemented with protease and phosphatase inhibitors. Cell lysates were incubated on ice for 20 minutes followed by centrifugation at >20,000×g for 5 min. Supernatants were transferred to fresh microtubes and stored at −80° C. Total protein concentration was determined using a BCA assay with a BSA standard curve and concentration of all samples was adjusted to 1 mg/mL. […] Chemiluminescence signals were then detected using a LAS-4000 system with default settings and signals quantified using Image Studio Lite software (version 5.2). […]

[6] = biological target: T5, ZFP91 (Homo sapiens, UniProt Q96JP5); experiment: Western blot selectivity assay in MM1S cells: ZFP91; assay type: cell-based; parameters: key: A represents a no degradation observed at 30 μM; B represents trace degradation at 30 μM (below 20%); C represents weak degradation at 30 μM (below 50%); D represents degradation at 30 μM (>90%); E represents degradation at 3 μM (>90%); F represents degradation at 0.3 μM (>90%); settings: MM1S cells, 0.3, 3 and 30 μM, 6 hours
T5 construct: endogenous in cells; host or cells: MM1S (ATCC CRL-2974)
T5 sequence (Q96SW2 whole entry partner): as the sequence (Q96SW2 whole entry) above
T5 sequence (Q16531 2-1140 partner limits assumed): as the sequence (Q16531 2-1140 partner limits assumed) above
T5 sequence (Q96JP5 2-570 limits assumed): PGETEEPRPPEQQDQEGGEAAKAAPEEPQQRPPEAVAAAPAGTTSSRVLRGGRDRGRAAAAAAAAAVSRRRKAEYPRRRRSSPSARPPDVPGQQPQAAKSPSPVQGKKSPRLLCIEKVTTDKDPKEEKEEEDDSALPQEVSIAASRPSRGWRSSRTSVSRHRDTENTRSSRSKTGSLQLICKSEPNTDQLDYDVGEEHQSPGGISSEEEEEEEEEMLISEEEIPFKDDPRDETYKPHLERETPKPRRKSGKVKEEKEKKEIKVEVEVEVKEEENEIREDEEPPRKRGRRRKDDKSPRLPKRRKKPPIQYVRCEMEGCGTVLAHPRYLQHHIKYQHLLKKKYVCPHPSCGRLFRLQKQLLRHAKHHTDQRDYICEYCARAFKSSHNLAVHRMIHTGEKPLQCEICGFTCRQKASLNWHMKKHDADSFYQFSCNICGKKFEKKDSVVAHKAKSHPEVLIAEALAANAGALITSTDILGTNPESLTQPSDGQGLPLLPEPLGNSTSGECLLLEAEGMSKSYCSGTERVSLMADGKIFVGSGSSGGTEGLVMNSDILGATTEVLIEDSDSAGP
Description: as §2

[7] = biological target: T6, IKZF3 (Aiolos) (Homo sapiens, UniProt Q9UKT9); experiment: Western blot selectivity assay in MM1S cells: IKZF3; assay type: cell-based; parameters: key: A represents a no degradation observed at 30 μM; B represents trace degradation at 30 μM (below 20%); C represents weak degradation at 30 μM (below 50%); D represents degradation at 30 μM (>90%); E represents degradation at 3 μM (>90%); F represents degradation at 0.3 μM (>90%); settings: MM1S cells, 0.3, 3 and 30 μM, 6 hours
T6 construct: endogenous in cells; host or cells: MM1S (ATCC CRL-2974)
T6 sequence (Q96SW2 whole entry partner): as the sequence (Q96SW2 whole entry) above
T6 sequence (Q16531 2-1140 partner limits assumed): as the sequence (Q16531 2-1140 partner limits assumed) above
T6 sequence (Q9UKT9 whole entry): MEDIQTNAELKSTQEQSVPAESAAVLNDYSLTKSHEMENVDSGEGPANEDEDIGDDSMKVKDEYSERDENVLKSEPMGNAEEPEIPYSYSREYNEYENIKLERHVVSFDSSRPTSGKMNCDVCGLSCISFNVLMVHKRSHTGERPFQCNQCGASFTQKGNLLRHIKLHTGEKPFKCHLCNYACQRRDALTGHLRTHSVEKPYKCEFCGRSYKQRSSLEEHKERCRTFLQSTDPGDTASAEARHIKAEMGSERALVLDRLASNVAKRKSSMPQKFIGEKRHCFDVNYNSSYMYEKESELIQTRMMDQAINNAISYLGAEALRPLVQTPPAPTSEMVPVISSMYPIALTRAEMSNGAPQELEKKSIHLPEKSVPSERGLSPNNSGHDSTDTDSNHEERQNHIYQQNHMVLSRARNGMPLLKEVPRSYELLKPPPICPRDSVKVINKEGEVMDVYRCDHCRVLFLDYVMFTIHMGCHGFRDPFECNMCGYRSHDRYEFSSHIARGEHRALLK
Description: as §1, with “After three washes with 1×TBST (5 minutes each), membranes were incubated with ECL reagent for 1 min at room temperature.” left out, “Membrane parts previously incubated with antibody against CK1alpha were stripped off antibodies by incubating with stripping buffer for 30 minutes followed by three washed with TBST (5 min each), blocking with 5% (w/v) skim milk for 1 hr, and incubation with primary antibody against GAPDH overnight at 4° C. Subsequent washes, incubation with secondary antibody and signal acquisition were performed as described above.” left out

[8] = bounds stated in the text lists b2059-b2061, read-out: IC50 value
[9] = cereblon binding, class code, read-out: rFP IC50
[10] = CAL-51 cells, 6 hours, read-out: Code (activity for GSPT1 degradation, DC50)

T1 sequence (Q96SW2 whole entry): as the sequence (Q96SW2 whole entry) above

IC50 [1, 8]	IC50 [1, 9]	DC50 [2, 10]	IKZF1 degradation [4]	CK1alpha degradation [5]	DC50 ([2]; compounds with code A, read-out: DC50 value)	ZFP91 degradation [6]	IKZF3 degradation [7]	SMILES	GSPT1 degradation [3]
< 0.5 µM	< 0.5 µM	0.03 to 0.3 µM						CCc1cc(NC(=O)OCc2ccc3c(c2)C(=O)N(C2CCC(=O)NC2=O)C3)sn1 (stereo not shown) [Compound 151]	
			A					CC(C)(C)c1ccc(NC(=O)OCc2ccc3c(c2)C(=O)N(C2CCC(=O)NC2=O)C3)cn1 (stereo not shown) [Compound 43]	F (F represents degradation at 0.3 μM (>90%))
< 1.7 µM	0.5 to 1.1 µM		A	A				Cc1ncc(NC(=O)OCc2ccc3c(c2)C(=O)N(C2CCC(=O)NC2=O)C3)cc1Cl (stereo not shown) [Compound 6]	F (F represents degradation at 0.3 μM (>90%))
< 1.1 µM	0.5 to 1.1 µM	< 0.03 µM			≤ 0.03 µM			O=C1CCC(N2Cc3ccc(COC(=O)Nc4cccc(OC5CC5(F)F)c4)cc3C2=O)C(=O)N1 (stereo not shown) [Compound 140]	
< 1.7 µM	1.1 to 1.7 µM		A					Cc1c(Cl)cc(NC(=O)OCc2ccc3c(c2)C(=O)N(C2CCC(=O)NC2=O)C3)cc1OCCN1CCOCC1 (stereo not shown) [Compound 48]	F (F represents degradation at 0.3 μM (>90%))
< 1.7 µM	1.1 to 1.7 µM		A			A		COc1cc(C)c(Cl)cc1NC(=O)OCc1ccc2c(c1)C(=O)N(C1CCC(=O)NC1=O)C2 (stereo not shown) [Compound 1]	F (F represents degradation at 0.3 μM (>90%))
< 1.7 µM	1.1 to 1.7 µM		A				A	O=C1CCC(N2Cc3ccc(COC(=O)Nc4cccc(OC(F)(F)F)c4)cc3C2=O)C(=O)N1 (stereo not shown) [Compound 3]	F (F represents degradation at 0.3 μM (>90%))

Source: US20230348418A1, “ISOINDOLINONE COMPOUNDS” (Monte Rosa Therapeutics, Inc., priority 2021, published 2023)
